Molecules are shown by their SMILES. Where only a bound is given, the exact number is not on record here.

Common to all, as to format: cell-based
One test concerns the target T1, human TLR8 (Homo sapiens, UniProt Q9NR97).
T1 construct: host or cells: HEK-Blue cells
T1 sequence (Q9NR97 27-1041): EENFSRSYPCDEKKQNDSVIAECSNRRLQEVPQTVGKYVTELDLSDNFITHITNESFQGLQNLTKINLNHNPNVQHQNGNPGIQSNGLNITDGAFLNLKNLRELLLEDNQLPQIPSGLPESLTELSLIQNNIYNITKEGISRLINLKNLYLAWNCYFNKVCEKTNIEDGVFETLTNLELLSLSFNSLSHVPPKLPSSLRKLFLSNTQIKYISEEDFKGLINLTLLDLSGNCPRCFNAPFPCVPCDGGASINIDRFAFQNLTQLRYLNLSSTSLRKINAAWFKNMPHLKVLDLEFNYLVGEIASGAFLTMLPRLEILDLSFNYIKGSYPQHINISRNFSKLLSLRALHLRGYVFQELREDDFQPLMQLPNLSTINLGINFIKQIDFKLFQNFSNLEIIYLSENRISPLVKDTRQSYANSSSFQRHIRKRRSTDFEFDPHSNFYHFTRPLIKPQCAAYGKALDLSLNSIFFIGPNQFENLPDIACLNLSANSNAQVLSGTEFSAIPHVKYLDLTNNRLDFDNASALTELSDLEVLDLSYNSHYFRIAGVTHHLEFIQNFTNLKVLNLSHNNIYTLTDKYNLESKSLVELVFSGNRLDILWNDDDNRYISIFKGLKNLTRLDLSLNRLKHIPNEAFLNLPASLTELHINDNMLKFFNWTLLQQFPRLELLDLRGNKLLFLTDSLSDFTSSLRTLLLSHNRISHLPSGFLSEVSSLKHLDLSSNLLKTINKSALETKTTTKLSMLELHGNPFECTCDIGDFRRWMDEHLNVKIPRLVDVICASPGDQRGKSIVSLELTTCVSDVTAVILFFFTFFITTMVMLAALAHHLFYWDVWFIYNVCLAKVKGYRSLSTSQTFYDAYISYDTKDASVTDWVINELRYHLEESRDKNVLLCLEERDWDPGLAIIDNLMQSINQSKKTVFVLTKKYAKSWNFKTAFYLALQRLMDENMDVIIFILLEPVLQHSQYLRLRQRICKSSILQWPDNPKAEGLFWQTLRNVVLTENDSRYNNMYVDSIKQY
Briefly: TLR8 inhibition reporter assay (HEK-Blue SEAP). As to conditions: HEK-Blue cells overexpressing human TLR8, stimulated with R848 15.9 μM, 22 hour incubation. Summed up: (§1)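 Reporter HEK-Blue lines; cpd 0.05 nM–50 μM, 30 min preincubation RT; agonist: TLR7 gardiquimod 7.5 μM, TLR8 R848 15.9 μM, TLR9 ODN2006 5 nM; 22 h 37 °C; SEAP detected colorimetrically; % inhib vs known inhibitor.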

The next test addresses T2, human TLR7 (Homo sapiens, UniProt Q9NYK1).
T2 construct: host or cells: HEK-Blue cells
T2 sequence (Q9NYK1 27-1049): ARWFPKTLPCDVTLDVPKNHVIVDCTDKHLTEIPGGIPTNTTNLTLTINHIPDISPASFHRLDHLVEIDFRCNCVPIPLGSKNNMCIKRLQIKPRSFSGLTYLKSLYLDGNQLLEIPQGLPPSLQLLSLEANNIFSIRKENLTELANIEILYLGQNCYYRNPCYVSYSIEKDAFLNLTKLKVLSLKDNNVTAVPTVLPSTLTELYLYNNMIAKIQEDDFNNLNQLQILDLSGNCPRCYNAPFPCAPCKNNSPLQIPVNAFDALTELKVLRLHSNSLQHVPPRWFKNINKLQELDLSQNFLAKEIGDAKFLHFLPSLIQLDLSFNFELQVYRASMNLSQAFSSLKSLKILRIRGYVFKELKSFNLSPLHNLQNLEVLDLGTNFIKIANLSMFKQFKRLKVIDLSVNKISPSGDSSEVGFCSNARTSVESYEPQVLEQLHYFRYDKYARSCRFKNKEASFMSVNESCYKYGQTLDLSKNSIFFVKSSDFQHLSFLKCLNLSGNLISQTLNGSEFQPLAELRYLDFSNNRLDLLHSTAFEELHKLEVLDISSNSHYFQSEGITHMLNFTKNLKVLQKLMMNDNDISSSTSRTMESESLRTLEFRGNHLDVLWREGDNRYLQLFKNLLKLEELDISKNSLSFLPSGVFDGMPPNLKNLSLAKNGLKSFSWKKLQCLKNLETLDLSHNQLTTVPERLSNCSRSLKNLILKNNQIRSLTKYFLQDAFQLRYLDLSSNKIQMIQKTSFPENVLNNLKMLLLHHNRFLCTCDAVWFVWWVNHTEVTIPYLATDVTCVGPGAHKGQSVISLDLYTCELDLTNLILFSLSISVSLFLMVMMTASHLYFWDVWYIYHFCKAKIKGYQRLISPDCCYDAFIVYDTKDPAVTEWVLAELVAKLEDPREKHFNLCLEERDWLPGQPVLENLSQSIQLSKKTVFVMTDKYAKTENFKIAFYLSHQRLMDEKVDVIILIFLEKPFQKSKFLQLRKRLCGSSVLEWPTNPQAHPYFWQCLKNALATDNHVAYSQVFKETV
Briefly: TLR7 inhibition reporter assay (HEK-Blue SEAP). As to conditions: HEK-Blue cells overexpressing human TLR7, stimulated with gardiquimod 7.5 μM, 22 hour incubation. In short, it runs like this: as §1
In general terms: In a reporter assay the amount or activity of a reporter protein is the signal.

In the next test the target is T3, human TLR9 (Homo sapiens, UniProt Q9NR96).
T3 construct: host or cells: HEK-Blue cells
T3 sequence (Q9NR96 26-1032): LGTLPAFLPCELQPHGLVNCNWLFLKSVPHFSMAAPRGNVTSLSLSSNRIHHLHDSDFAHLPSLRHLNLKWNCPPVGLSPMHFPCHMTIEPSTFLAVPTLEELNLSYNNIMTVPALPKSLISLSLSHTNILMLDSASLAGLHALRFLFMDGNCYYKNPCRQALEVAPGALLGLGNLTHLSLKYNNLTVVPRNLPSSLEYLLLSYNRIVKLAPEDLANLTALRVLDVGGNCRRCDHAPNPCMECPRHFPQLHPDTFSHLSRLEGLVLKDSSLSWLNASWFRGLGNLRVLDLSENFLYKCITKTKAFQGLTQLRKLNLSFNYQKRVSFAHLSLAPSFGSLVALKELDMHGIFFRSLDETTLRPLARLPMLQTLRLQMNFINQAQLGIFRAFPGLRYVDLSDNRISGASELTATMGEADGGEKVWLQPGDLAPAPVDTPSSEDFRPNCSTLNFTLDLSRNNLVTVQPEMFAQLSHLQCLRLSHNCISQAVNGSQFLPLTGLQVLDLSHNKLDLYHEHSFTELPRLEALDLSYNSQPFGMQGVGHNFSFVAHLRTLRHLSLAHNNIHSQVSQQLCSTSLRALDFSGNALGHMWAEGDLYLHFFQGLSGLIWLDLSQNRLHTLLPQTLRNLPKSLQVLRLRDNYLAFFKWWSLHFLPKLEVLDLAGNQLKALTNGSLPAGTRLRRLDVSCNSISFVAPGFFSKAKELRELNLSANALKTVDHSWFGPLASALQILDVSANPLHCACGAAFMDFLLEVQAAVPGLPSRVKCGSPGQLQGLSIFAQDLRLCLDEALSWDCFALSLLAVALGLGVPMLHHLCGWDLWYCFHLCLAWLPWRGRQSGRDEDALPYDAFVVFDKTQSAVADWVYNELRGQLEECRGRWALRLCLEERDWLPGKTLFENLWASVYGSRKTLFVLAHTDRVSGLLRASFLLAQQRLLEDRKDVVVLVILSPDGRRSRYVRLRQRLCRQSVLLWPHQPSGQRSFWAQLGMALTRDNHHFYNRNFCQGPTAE
Briefly: TLR9 inhibition reporter assay (HEK-Blue SEAP). Conditions: HEK-Blue cells overexpressing human TLR9, stimulated with ODN2006 5 nM, 22 hour incubation. In short, it runs like this: as §1

Usually IC50 stands for the point on the concentration scale where inhibition reaches its midpoint. For the compound `COc1cc(-c2cc3[nH]nc(C4CCN(C(=O)CN(C)C)CC4)c3cc2C(C)C)cn2ncnc12` [Example 117, 2-(dimethylamino)-1-(4-(5-isopropyl-6-(8-methoxy-[1,2,4]triazolo[1,5-a]pyridin-6-yl)-1H-indazol-3-yl)piperidin-1-yl)ethan-1-one], the IC50 against human TLR8 was found to be 0.5 nM; against human TLR7, 3.4 nM; against human TLR9, 11200 nM.
Consider `Cc1cc(-c2cc3[nH]nc(C4CCN(C5COC5)CC4)c3cc2C(C)C)cn2ncnc12` [Example 120, 6-(5-isopropyl-3-(1-(oxetan-3-yl)piperidin-4-yl)-1H-indazol-6-yl)-8-methyl-[1,2,4]triazolo[1,5-a]pyridine], for which the IC50 on human TLR8 was 1.1 nM; at human TLR7, 7.4 nM; on human TLR9, at least 50000 nM.
In the case of `Cc1cc(-c2cc3[nH]nc(C4CCN(C(=O)CCN(C)C)CC4)c3cc2C(C)C)cn2ncnc12` [Example 122, 3-(dimethylamino)-1-(4-(5-isopropyl-6-(8-methyl-[1,2,4]triazolo[1,5-a]pyridin-6-yl)-1H-indazol-3-yl)piperidin-1-yl)propan-1-one], the IC50 worked out at 0.8 nM on human TLR8, 3.2 nM on human TLR7 and 13700 nM on human TLR9.
The corresponding values for `Cc1cc(-c2cc3[nH]nc(C4CCN(C(C)C)CC4)c3cc2C(C)C)cn2ncnc12` [Example 123, 6-(5-isopropyl-3-(1-isopropylpiperidin-4-yl)-1H-indazol-6-yl)-8-methyl-[1,2,4] triazolo[1,5-a]pyridine] are 0.1 nM, 0.5 nM and 5660 nM.
The corresponding values for `Cc1cc(-c2cc3[nH]nc(C4CCC(NCCS(C)(=O)=O)CC4)c3cc2C(C)C)cn2ncnc12` (stereo not drawn) [Example 126, 4-(5-isopropyl-6-(8-methyl-[1,2,4]triazolo[1,5-a]pyridin-6-yl)-1H-indazol-3-yl)-N-(2-(methylsulfonyl)ethyl) cyclohexan-1-amine] are 0.1 nM, 1.1 nM and 10800 nM.
The corresponding values for `Cc1cc(-c2cc3[nH]nc(C4CCC(NCCS(C)(=O)=O)CC4)c3cc2C(C)C)cn2ncnc12` (stereo not drawn) [Example 127, 4-(5-isopropyl-6-(8-methyl-[1,2,4]triazolo[1,5-a]pyridin-6-yl)-1H-indazol-3-yl)-N-(2-(methylsulfonyl)ethyl) cyclohexan-1-amine] are 0.1 nM, 1.9 nM and 8470 nM.
On to `Cc1cc(-c2cc3[nH]nc(C4CCC(N5CCOCC5)CC4)c3cc2C(C)C)cn2ncnc12` (stereo not drawn) [Example 132, 4-(4-(5-isopropyl-6-(8-methyl-[1,2,4]triazolo[1,5-a]pyridin-6-yl)-1H-indazol-3-yl)cyclohexyl)morpholine], for which the IC50 on human TLR8 was determined as 0.1 nM; against human TLR7 it was 0.9 nM; against human TLR9, 5430 nM.
The corresponding values for `Cc1cc(-c2cc3[nH]nc(C4CCC(N5CCOCC5)CC4)c3cc2C(C)C)cn2ncnc12` (stereo not drawn) [Example 133, 4-(4-(5-isopropyl-6-(8-methyl-[1,2,4]triazolo[1,5-a]pyridin-6-yl)-1H-indazol-3-yl)cyclohexyl)morpholine] are 0.2 nM, 1.4 nM and 9190 nM.
The corresponding values for `COC1CN(C2CCC(c3n[nH]c4cc(-c5cc(C)c6ncnn6c5)c(C(C)C)cc34)CC2)C1` (stereo not drawn) [Example 144, 6-(5-isopropyl-3-(4-(3-methoxyazetidin-1-yl)cyclohexyl)-1H-indazol-6-yl)-8-methyl-[1,2,4]triazolo[1,5-a]pyridine] are 0.5 nM, 0.8 nM and 13100 nM.
Take `COC1CN(C2CCC(c3n[nH]c4cc(-c5cc(C)c6ncnn6c5)c(C(C)C)cc34)CC2)C1` (stereo not drawn) [Example 145, 6-(5-isopropyl-3-(4-(3-methoxyazetidin-1-yl)cyclohexyl)-1H-indazol-6-yl)-8-methyl-[1,2,4]triazolo[1,5-a]pyridine]: the results for the IC50 on human TLR8, against human TLR7 and against human TLR9 were 0.8 nM, 1.5 nM and 8690 nM, respectively.
On to `Cc1cc(-c2cc3[nH]nc(C4CCC(N5CC(CO)(CO)C5)CC4)c3cc2C(C)C)cn2ncnc12` (stereo not drawn) [Example 146, (1-(4-(5-isopropyl-6-(8-methyl-[1,2,4]triazolo[1,5-a]pyridin-6-yl)-1H-indazol-3-yl)cyclohexyl)azetidine-3,3-diyl)dimethanol], for which the IC50 on human TLR8 is 2.6 nM; against human TLR7 it was 4.7 nM; at human TLR9, at least 50000 nM.
The corresponding values for `Cc1cc(-c2cc3[nH]nc(C4CCC(N5CC(F)C5)CC4)c3cc2C(C)C)cn2ncnc12` (stereo not drawn) [Example 151, 6-(3-(4-(3-fluoroazetidin-1-yl)cyclohexyl)-5-isopropyl-1H-indazol-6-yl)-8-methyl-[1,2,4]triazolo[1,5-a]pyridine] are 0.6 nM, 1.4 nM and 8360 nM.

These data come from patent US12172995B2, “Substituted indole and indazole compounds” (BRISTOL-MYERS SQUIBB COMPANY, priority 2018, dated 2024).
